Measured values published in US20240261310A1, “APPLICATION OF ALGINATE OLIGOSACCHARIDES” (HAITANG (JIANGSU) BIOTECHNOLOGY COMPANY, LTD., priority 2021, published 2024).

Columns and labels:
Assay type in all cases: in vivo
[1] = system: mice with AKI induced by cisplatin; assay: Mouse acute kidney injury induced by cisplatin
From the text: Cisplatin-induced kidney injury is a classical and standard animal model that simulates the acute kidney injury induced by drugs that cause nephrotoxicity. With the mouse cisplatin model, we administered the alginate oligosaccharides with different uniform degrees of polymerization and a mixture thereof, and then compared with a blank group and a non-administrated model group to investigate the therapeutic effects of the individual alginate oligosaccharides with a uniform degree of polymerization.
30 male C57BL/J6 mice of 22-28 grams were selected. Before treatment, the 24-hour urine output was collected and measured without abnormalities. The mice to be modeled were randomly divided into the following groups: a control group, a model group, a model+low-dose administration group (AOS3 at 0.05 g/kg/day), a model+medium-dose administration group (AOS3 at 0.1 g/kg/day), and a model+high-dose administration group (AOS3 at 0.2 g/kg/day), with 6 mice in each group. The alginate trisaccharides was intragastrically administered, and the model group and the control group were all fed by gavage with the same volume of normal saline. Cisplatin was used to induce the drug toxin-associated acute kidney injury. During modeling, each model group was intraperitoneally injected with cisplatin at 20 mg/kg, and the control group was intraperitoneally injected with the same volume of normal saline. Immediately after modeling, the mice were put back into the mouse metabolic cages for observation, during which the weight, food intake, water intake and urine output of the mice were measured (see FIG. 37 for the results). The mice were sacrificed 72 hours later for sampling, and urine was collected. […] Then, the serum creatinine in the mice was determined by using the creatinine assay kit from Nanjing Jiancheng, with the results shown in FIG. 36. During sampling, the kidneys on both sides were isolated, the cortex and inner medulla of each kidney were isolated, and the cortex was stored in trizol. When in use, mRNAs in the cortex were extracted using the trizol method, and the mRNA expressions of AKI biomarkers (KIM-1 and NGAL, with the results shown in FIG. 38) were detected by the Qpcr method. A tissue lysis buffer was added to homogenize the kidneys by ultrasound, the total protein was then extracted, and the inflammatory factors (p-NFκB/NFκB and IL-1β) in the renal cortex tissues were detected by western blotting. The experimental data were statistically analyzed by one-way ANOVA.

[2] = system: rats with AKI induced by renal ischemia-reperfusion (I/R) injury; assay: Rat acute kidney injury (AKI) induced by ischemia-reperfusion (I/R); details: for level of serum creatinine / 24-hour urine output: Sprague Dawley rats, intragastric; for level of serum creatinine: 24 h after I/R; for mRNA levels of Kim-1 and NGAL in kidney tissues / inflammatory factors in kidney tissues (TLR4, p-NFκB/NFκB, pro-IL-1β/IL-1β): renal cortex; for mRNA levels of Kim-1 and NGAL in kidney tissues: 0.1 g/kg/day intragastric; for inflammatory factors in kidney tissues (TLR4, p-NFκB/NFκB, pro-IL-1β/IL-1β): western blotting, doses 0.01, 0.05, 0.1 g/kg/day, dose dependent
From the text: Ischemia-reperfusion induced kidney injury is a classical animal model that simulates the acute kidney injury caused by clinical hypoperfusion. With the rat ischemia-reperfusion model, the author of the invention administered the alginate oligosaccharides with a uniform degree of polymerization as prepared by Example 1-3 and a mixture thereof, and then carried out comparison with a blank group and a non-administrated model group to investigate the therapeutic effects of the several alginate oligosaccharides with a uniform degree of polymerization.
30 male Sprague Dawley rats (purchased from the Laboratory Animal Center of Sun Yat-sen University) of 220-250 grams were selected. Before treatment, the 24-hour urine output was collected and measured without abnormalities. The rats to be modeled were randomly divided into the following groups: a sham group, a model group, and three alginate disaccharide groups with the doses of 0.01 g/kg/day, 0.05 g/kg/day and 0.1 g/kg/day respectively (6 rats in each group). In the present invention, the alginate disaccharide is abbreviated as “AOS2”. Intragastric administration was adopted, and rats in the model group and the sham group were all fed by gavage with the same volume of normal saline. On the day of operation, the rats were anesthetized intraperitoneally with 3% pentobarbital sodium and subjected to routine skin disinfection. The abdomen was sectioned to expose the left and right kidneys. In the sham group, the kidneys were only examined, and then the incision was sutured layer by layer to end the operation. In the model group and the modeled administration group, large bulldog clamps were used for occlusion of the renal pedicles on both sides, then the kidneys were recovered in place, and the incision was covered with gauze and dropwise added with a small amount of normal saline for rehydration. After 45 minutes, the bulldog clamps on both sides were released, and the incision was sutured layer by layer to end the operation. After operation, the rats were placed on a heating pad at 37° C. to wait for resuscitation, and then placed back into metabolic cages, in which the weight, food intake, water intake and urine output of the rats were measured. The rats were routinely fed after operation and sacrificed 24 hours later for sampling. […] Then, the serum creatinine in the rats was determined by using the creatinine assay kit from Nanjing Jiancheng, with the results shown in FIG. 10. During sampling, the kidneys on both sides were isolated, the cortex and inner medulla of each kidney were isolated, and the cortex was stored in trizol. When in use, mRNAs in the cortex were extracted using the trizol method, and the mRNA expressions of AKI biomarkers (KIM-1 and NGAL) were detected. A tissue lysis buffer was added to homogenize the kidneys by ultrasound, the total protein was then extracted, and the inflammatory factors (p-NFκB/NFκB and pro-IL-1β/IL-1β) in the renal cortex tissues were detected by western blotting. The experimental data were statistically analyzed by one-way ANOVA.
With the same experimental method as that for the alginate disaccharides, the effect of alginate trisaccharides against the rat acute kidney injury induced by ischemia-reperfusion was investigated. In the present invention, the alginate trisaccharide is abbreviated as “AOS3”. The serum creatinine in the rats was determined by using the creatinine assay kit from Nanjing Jiancheng, with the results shown in FIG. 14. During sampling, the kidneys on both sides were isolated, the cortex and inner medulla of each kidney were isolated, and the cortex was stored in trizol. When in use, mRNAs in the cortex were extracted using the trizol method, and the mRNA expression of AKI biomarkers (KIM-1 and NGAL) was detected. […]

[3] = system: mice with AKI induced by endotoxin phosphorus lipopolysaccharides (LPS); assay: Mouse acute kidney injury induced by endotoxin phosphorus lipopolysaccharides (LPS); details: for level of serum creatinine: C57/B16 mice, LPS 15 mg/kg i.p., 24 h; for level of serum creatinine / gene expressions of inflammatory factors (IL-1β, IL-18, TNF-α, MCP-1) / mRNA levels of Kim-1 and NGAL in kidney tissues / protein expressions of renal inflammatory factors (TLR4, p-NFκB/NFκB, pro-IL-1β/IL-1β): 0.1 g/kg/day intragastric; for gene expressions of inflammatory factors (IL-1β, IL-18, TNF-α, MCP-1) / mRNA levels of Kim-1 and NGAL in kidney tissues / protein expressions of renal inflammatory factors (TLR4, p-NFκB/NFκB, pro-IL-1β/IL-1β): renal cortex, vs LPS group; for gene expressions of inflammatory factors (IL-1β, IL-18, TNF-α, MCP-1) / mRNA levels of Kim-1 and NGAL in kidney tissues: Qpcr; for protein expressions of renal inflammatory factors (TLR4, p-NFκB/NFκB, pro-IL-1β/IL-1β): western blotting
From the text: The kidney injury induced by treatment with endotoxin phosphorus lipopolysaccharides is a classical and standard animal model that simulates the acute kidney injury induced by clinical infection. With the mouse endotoxin phosphorus lipopolysaccharide model, we administered the alginate oligosaccharides with different uniform degrees of polymerization and a mixture thereof, and then compared with a blank group and a non-administrated model group to investigate the therapeutic effects of the individual alginate oligosaccharides with a uniform degree of polymerization.
24 male C57/B16 mice of 22-28 grams were selected. […] LPS was used for modeling to induce the occurrence of sepsis-associated acute kidney injury. During modeling, each model group was intraperitoneally injected with LPS at 15 mg/kg, and the control group was intraperitoneally injected with the same volume of normal saline. Immediately after modeling, the mice were put back into the mouse metabolic cages for observation, in which the weight, food intake, water intake and urine output of the mice were measured. The mice were sacrificed 24 hours later for sampling, and urine was collected. […] Then, the serum creatinine in the mice was determined by using the creatinine assay kit from Nanjing Jiancheng, with the results shown in FIG. 23. During sampling, the kidneys on both sides were isolated, the cortex and inner medulla of each kidney were isolated, and the cortex was stored in trizol. When in use, mRNAs in the cortex were extracted using the trizol method, and the mRNA expressions of AKI biomarkers (KIM-1 and NGAL, with the results shown in FIG. 24) and inflammatory factors (IL-1β, IL-18, TNF-α, and MCP-1, with the results shown in FIG. 25) were detected by the Qpcr method. A tissue lysis buffer was added to homogenize the kidneys by ultrasound, the total protein was then extracted, and the inflammatory factors (p-NFκB/NFκB, pro-IL-1β/IL-1β) in the renal cortex tissues were detected by western blotting. The experimental data were statistically analyzed by one-way ANOVA.
The same experimental method was used as that for the alginate disaccharides. The serum creatinine in the mice was determined by using the creatinine assay kit from Nanjing Jiancheng, with the results shown in FIG. 27. During sampling, the kidneys on both sides were isolated, the cortex and inner medulla of each kidney were isolated, and the cortex was stored in trizol. When in use, mRNAs in the cortex were extracted using the trizol method, and the mRNA expressions of AKI biomarkers (KIM-1 and NGAL, with the results shown in FIG. 28) and inflammatory factors (IL-1β, IL-18, TNF-α, and MCP-1, with the results shown in FIG. 29) were detected by the Qpcr method. A tissue lysis buffer was added to homogenize the kidneys by ultrasound, the total protein was then extracted, and the inflammatory factors (p-NFκB/NFκB, pro-IL-IP/IL-1β) in the renal cortex tissues were detected by western blotting. In addition, the animals were sacrificed after the last blood collection, the kidneys were fixed in 4% formaldehyde solution, and subjected to conventional paraffin embedding, sectioning, and HE staining to observe the general kidney tissue morphology under a light microscope. The experimental data were statistically analyzed by one-way ANOVA.
The same experimental method was used as that for the alginate disaccharides and alginate trisaccharides. […] The serum creatinine in the mice was determined by using the creatinine assay kit from Nanjing Jiancheng, with the results shown in FIG. 32. During sampling, the kidneys on both sides were isolated, the cortex and inner medulla of each kidney were isolated, and the cortex was stored in trizol.

[4] = 0.1 g/kg/day, vs cisplatin model group
[5] = three doses 0.01, 0.05, 0.1 g/kg/day, vs I/R model group

Substance	expressions of inflammatory factors [1, 4]	level of serum creatinine [1, 4]	levels of kidney injury factors (KIM-1 and NGAL) [1, 4]	level of serum creatinine ([2]; 0.1 g/kg/day)	level of serum creatinine [2, 5]	24-hour urine output [2, 5]	mRNA levels of Kim-1 and NGAL in kidney tissues ([2]; vs I/R model group)	inflammatory factors in kidney tissues (TLR4, p-NFκB/NFκB, pro-IL-1β/IL-1β) [2]	level of serum creatinine [3]	gene expressions of inflammatory factors (IL-1β, IL-18, TNF-α, MCP-1) [3]	mRNA levels of Kim-1 and NGAL in kidney tissues [3]	protein expressions of renal inflammatory factors (TLR4, p-NFκB/NFκB, pro-IL-1β/IL-1β) [3]	24-hour urine output ([2]; 0.1 g/kg/day)	level of serum creatinine ([1]; C57BL/J6 mice, cisplatin 20 mg/kg i.p., intragastric 0.05, 0.1, 0.2 g/kg/day, 72 h)	mRNA levels of Kim-1 and NGAL in kidney tissues ([1]; renal cortex, Qpcr, vs cisplatin model group)	protein expressions of renal inflammatory factors (TLR4, p-NFκB/NFκB, IL-1β) ([1]; renal cortex, western blotting, vs cisplatin model group)	urine output ([1]; three doses 0.05, 0.1, 0.2 g/kg/day, 24 h to 72 h, dose dependent)	renal histopathological manifestations ([2]; HE staining, 0.1 g/kg/day)	renal histopathological manifestations ([3]; HE staining, LPS+AOS3 group)
alginate disaccharide sodium salt [AOS2]	decreased significantly	decreased significantly	decreased significantly	basically return to a normal level	decreased significantly	decreased somewhat	significantly reduced the expressions of both markers	reduced the production of inflammatory factors	decreased significantly and could basically return to a normal level	significantly reduced the production of inflammatory factors	significantly reduced	significantly reduced the production of the inflammatory factors	–	–	–	–	–	–	–
alginate tetrasaccharide sodium salt [AOS4]	decreased significantly	decreased significantly	decreased significantly	restore to a normal level	decreased significantly	somewhat reduced	significantly reduce both markers	significantly reduce the production of inflammatory factors	significantly reduced the serum creatinine	significantly reduced	significantly reduced	significantly inhibited the inflammatory responses of the kidneys	obviously better than that of the mixed saccharides	–	–	–	–	–	–
alginate trisaccharide sodium salt [AOS3]	decreased significantly	decreased significantly	decreased significantly	basically return to a normal level	decreased significantly	somewhat decreased	significantly reduced the expressions of both markers	reduce the production of inflammatory factors	decreased significantly and could basically return to a normal level	significantly reduced the production of inflammatory factors	significantly reduced	significantly reduced the production of the inflammatory factors	basically recovered to the normal level	decreased significantly and could basically return to a normal level	significantly reduced	significantly reduced the production of the inflammatory factors	first somewhat decreased and then became normal	the renal tubules showed mild lesions	the glomeruli and renal tubules showed mild lesions
